Our source for the IC50 values is patent US10689414B2 (Agios Pharmaceuticals, Inc., priority 2013, dated 2020).

In one assay the target is IDH1 R132C (Homo sapiens (Human), UniProt O75874, R132C). Description: In vitro NADPH depletion assay for IDH1m R132C inhibitors. The note with it: IDH1 R132C enzyme, read-out: IDH R132C IC50. The assay is classed as biochemical. As for the experimental part: (§1) A test compound is prepared as 10 mM stock in DMSO and diluted to 50× final concentration in DMSO, for a 50 μl reaction mixture. IDH enzyme activity converting alpha-ketoglutarate to 2-hydroxyglutaric acid is measured using a NADPH depletion assay. In the assay the remaining cofactor is measured at the end of the reaction with the addition of a catalytic excess of diaphorase and resazurin, to generate a fluorescent signal in proportion to the amount of NADPH remaining. […] The reaction is started with the addition of 10 μl of Substrate Mix ([…], 5 mM alpha-ketoglutarate, in Assay Buffer) and the mixture is incubated for 90 minutes at room temperature.
The concentration of NADPH and alpha-ketoglutarate in the Substrate Buffer is 20 μM and 1 mM, respectively.

The target of the next assay is IDH1 R132H (Homo sapiens (Human), UniProt O75874, R132H). Put plainly: In vitro NADPH depletion assay for IDH1m R132H inhibitors. The assay is classed as biochemical. Particulars: IDH1 R132H enzyme, read-out: IDH R132H IC50. As for the experimental part: as §1
A further assay deals with U87MG cells. Description: Cellular assay, inhibition of 2-HG production in U87MG cells. It is filed as cell-based. An outline of the steps: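 HT1080 or U87MG cells (U87MG kept with 500 ug/mL G418) seeded at 5000 cells/well and treated with compound at 0.2% final DMSO. Incubated 48 h at 37 °C. 2-HG inhibition determined by LC-MS. Viability read by CellTiter-Glo luminescence at 72 h post-dose.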

The subject of the next assay is HT1080 cells. Put plainly: Cellular assay, inhibition of 2-HG production in HT1080 cells. It is filed as cell-based. Particulars: Homo sapiens, HT-1080, 48 h. As for the experimental part:
Cells (HT1080 or U87MG) are grown in T125 flasks in DMEM containing 10% FBS, 1× penicillin/streptomycin and 500 ug/mL G418 (present in U87MG cells only). They are harvested by trypsin and seeded into 96 well white bottom plates at a density of 5000 cell/well in 100 ul/well in DMEM with 10% FBS. […] Cells are incubated overnight at 37° C. in 5% CO2. The next day test compounds are made up at 2× the final concentration and 100 ul are added to each cell well. The final concentration of DMSO is 0.2% and the DMSO control wells are plated in row G. The plates are then placed in the incubator for 48 hours. […] The cell plate is placed back in the incubator for another 24 hours. At 72 hours post compound addition, 10 mL/plate of Promega Cell Titer Glo reagent is thawed and mixed. The cell plate is removed from the incubator and allowed to equilibrate to room temperature. Then 100 ul of Promega Cell Titer Glo reagent is added to each well of media. The cell plate is then placed on an orbital shaker for 10 minutes and then allowed to sit at room temperature for 20 minutes. The plate is then read for luminescence with an integration time of 500 ms.

Setting [1] is: inhibition of 2-HG production, U87MG cells, 48 hours.

Chain of IDH1 R132H (O75874 whole entry R132H): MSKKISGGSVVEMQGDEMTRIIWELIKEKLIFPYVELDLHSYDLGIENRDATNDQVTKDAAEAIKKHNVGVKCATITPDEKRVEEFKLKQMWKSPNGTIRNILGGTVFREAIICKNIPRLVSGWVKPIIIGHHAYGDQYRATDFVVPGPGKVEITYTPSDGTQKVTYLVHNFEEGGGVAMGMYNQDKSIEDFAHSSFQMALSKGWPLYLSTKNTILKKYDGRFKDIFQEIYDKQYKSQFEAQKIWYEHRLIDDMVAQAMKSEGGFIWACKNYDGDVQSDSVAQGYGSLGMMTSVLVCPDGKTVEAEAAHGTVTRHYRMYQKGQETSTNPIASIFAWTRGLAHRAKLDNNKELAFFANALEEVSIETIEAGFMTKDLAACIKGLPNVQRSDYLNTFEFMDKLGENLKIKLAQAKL
Chain of IDH1 R132C (O75874 whole entry R132C): as the sequence (O75874 whole entry R132H) above, with H132C counted along it

For “(S)-tert-butyl 3-(((S)-1-(2-chlorophenyl)-2-((3,3-difluorocyclobutyl) amino)-2-oxoethyl)(3,5-difluorophenyl)carbamoyl)-5-oxopiperazine-1-carboxylate [Compound 97]”, the IC50 on IDH1 R132C, on IDH1 R132H and in the assay on U87MG cells (setting [1]) was under 100 nM in each case.

With “(S)—N—((S)-1-(2-Chlorophenyl)-2-(3,3-difluorocyclobutylamino)-2-oxoethyl)-N-(3-cyano-5-fluorophenyl)-3-(3-cyanophenyl)-2-oxooxazolidine-4-carboxamide [Compound 134]”, the concentration for half-maximal inhibition (IC50) on IDH1 R132C, on IDH1 R132H and in the assay with U87MG cells (setting [1]) was under 100 nM throughout.

In the case of `Cc1cccc(N2C(=O)CC[C@H]2C(=O)N(c2cccc(F)c2)[C@H](C(=O)NC2CC(F)(F)C2)c2ccccc2Cl)n1` [Compound 28], the concentration for half-maximal inhibition (IC50) with HT1080 cells was under 100 nM.

Take “(S)—N—((S)-1-(2-Chlorophenyl)-2-((4,4-difluorocyclohexyl)amino)-2-oxoethyl)-3-(4-cyano-pyridin-2-yl)-N-(3-fluorophenyl)-2-oxooxazolidine-4-carboxamide [Compound 78]”: the IC50 on IDH1 R132C, at IDH1 R132H and in the assay with U87MG cells (setting [1]) was under 100 nM each time.

For `O=C(NC1CC(F)(F)C1)[C@H](c1ccccc1Cl)N(C(=O)[C@@H]1CCC(=O)N1c1cc(C(F)(F)F)ccn1)c1cccc(F)c1` [Compound 40], the half-inhibitory concentration (IC50) was 100 to 500 nM in the assay with HT1080 cells and 100 to 500 nM with U87MG cells (Homo sapiens, U-87 MG, 48 h).

For “(S)—N—((S)-1-(2-Chlorophenyl)-2-((3,3-difluorocyclobutyl)amino)-2-oxoethyl)-1-(4-cyanopyridin-2-yl)-N-(1H-indazol-6-yl)-5-oxopyrrolidine-2-carboxamide [Compound 205]”, the IC50 on IDH1 R132C, at IDH1 R132H and with U87MG cells (setting [1]) was under 100 nM each time.

For `CC(C)(C)c1cccc(N(C(=O)[C@@H]2CCC(=O)N2c2nccc(C#N)n2)[C@H](C(=O)NC2CC(F)(F)C2)c2ccccc2Cl)c1` [Compound 165, (S)—N-(3-(tert-Butyl)phenyl)-N—((S)-1-(2-chlorophenyl)-2-((3,3-difluorocyclobutyl)amino)-2-oxoethyl)-1-(4-cyanopyrimidin-2-yl)-5-oxopyrrolidine-2-carboxamide], the 50% inhibitory concentration (IC50) on IDH1 R132H is under 100 nM; in the assay on U87MG cells (Homo sapiens, U-87 MG, 48 h) it was under 100 nM.

In the case of `COc1cccnc1N1C(=O)CC[C@H]1C(=O)N(c1cccc(F)c1)[C@H](C(=O)NC1CC(F)(F)C1)c1ccccc1Cl` [Compound 17], the IC50 was in the range of 500 to 1000 nM in the assay with HT1080 cells and 1000 to 2000 nM in the assay on U87MG cells (Homo sapiens, U-87 MG, 48 h).

In the case of `N#Cc1cccc(N2C(=O)OC[C@H]2C(=O)N(c2cccc3cn[nH]c23)[C@H](C(=O)NC2CCC(F)(F)CC2)c2ccccc2Cl)c1` [Compound 142, (S)—N—((S)-1-(2-Chlorophenyl)-2-(4,4-difluorocyclohexylamino)-2-oxoethyl)-3-(3-cyanophenyl)-N-(1H-indazol-7-yl)-2-oxooxazolidine-4-carboxamide], the IC50 at IDH1 R132C, on IDH1 R132H and in the assay on U87MG cells (setting [1]) was under 100 nM each time.

Regarding `O=C(NC1CC(F)(F)C1)[C@H](c1ccccc1Cl)N(C(=O)[C@@H]1CCC(=O)N1c1ccccn1)c1cccc(F)c1` [Compound 5], the IC50 was under 100 nM at IDH1 R132C; under 100 nM at IDH1 R132H; 100 to 500 nM in the assay with U87MG cells (Homo sapiens, U-87 MG, 48 h).

Take “(S)—N—((S)-1-(2-Chlorophenyl)-2-((3,3-difluorocyclobutyl)amino)-2-oxoethyl)-1-(4-cyanopyrimidin-2-yl)-N-(3-fluoro-5-(methylsulfonyl)phenyl)-5-oxopyrrolidine-2-carboxamide [Compound 109]”: the IC50 on IDH1 R132C was under 100 nM; at IDH1 R132H it was under 100 nM; with U87MG cells (setting [1]) it was 100 to 500 nM.

Take `O=C(NC1CC(F)(F)C1)[C@H](c1ccccc1Cl)N(C(=O)[C@@H]1CCC(=O)N1c1ccc(Cl)cn1)c1cccc(F)c1` [Compound 48]: the concentration for half-maximal inhibition (IC50) in the assay on HT1080 cells was in the range of 100 to 500 nM; in the assay on U87MG cells (Homo sapiens, U-87 MG, 48 h) it was 100 to 500 nM.

Regarding `O=C(NC1CC(F)(F)C1)[C@H](c1ccccc1Cl)N(C(=O)[C@@H]1CCC(=O)N1c1ccncn1)c1cccc(F)c1` [Compound 22], the IC50 at IDH1 R132C and on IDH1 R132H was 100 to 500 nM each time.

Turning to “(S)—N—((S)-1-(2-Chlorophenyl)-2-(3,3-difluorocyclobutylamino)-2-oxoethyl)-1-(3-cyano-phenyl)-N-(1H-indazol-7-yl)-5-oxopyrrolidine-2-carboxamide [Compound 186]”, the 50% inhibitory concentration (IC50) on IDH1 R132C, on IDH1 R132H and with U87MG cells (setting [1]) was under 100 nM each time.

Regarding “(2S)—N-(1-(2-Chlorophenyl)-2-((4,4-difluorocyclohexyl)amino)-2-oxoethyl)-1-(4-cyanopyridin-2-yl)-N-(3-fluoro-5-(methylsulfonyl)phenyl)-5-oxopyrrolidine-2-carboxamide [Compound 105]”, the half-maximal inhibitory concentration (IC50) on IDH1 R132C, at IDH1 R132H and in the assay with U87MG cells (setting [1]) was under 100 nM each time.

As to “(2S)—N-(1-(2-Chlorophenyl)-2-((3,3-difluorocyclobutyl)amino)-2-oxoethyl)-1-(4-cyanopyridin-2-yl)-N-(3-fluoro-5-(methylsulfonyl)phenyl)-5-oxopyrrolidine-2-carboxamide [Compound 110]”, the half-inhibitory concentration (IC50) at IDH1 R132C, on IDH1 R132H and in the assay on U87MG cells (setting [1]) was under 100 nM in each case.

With `N#Cc1ccnc(N2C(=O)CC[C@H]2C(=O)N(c2cc(F)cc(F)c2)[C@H](C(=O)NC2CC(F)(F)C2)c2ccccc2F)c1` [Compound 208, (S)-1-(4-Cyanopyridin-2-yl)-N—((S)-2-(3,3-difluorocyclobutylamino)-1-(2-fluorphenyl)-2-oxoethyl)-N-(3,5-difluorophenyl)-5-oxopyrrolidine-2-carboxamide], the IC50 at IDH1 R132C is under 100 nM; on IDH1 R132H it was under 100 nM; with U87MG cells (Homo sapiens, U-87 MG, 48 h) it was under 100 nM.

`N#Cc1cc(C#N)cc(N(C(=O)[C@@H]2CCC(=O)N2c2cc(C#N)ccn2)[C@H](C(=O)NC2CC(F)(F)C2)c2ccccc2Cl)c1` [Compound 153, (S)—N—((S)-1-(2-Chlorophenyl)-2-((3,3-difluorocyclobutyl)amino)-2-oxoethyl)-1-(4-cyanopyridin-2-yl)-N-(3,5-dicyanophenyl)-5-oxopyrrolidine-2-carboxamide] came in with an IC50 with U87MG cells (Homo sapiens, U-87 MG, 48 h) of under 100 nM.

For `N#Cc1ccnc(N2C(=O)OCC[C@H]2C(=O)N(c2cncc(F)c2)[C@H](C(=O)NC2CC(F)(F)C2)c2ccccc2Cl)c1` [Compound 143, (S)—N—((S)-1-(2-Chlorophenyl)-2-((3,3-difluorocyclobutyl)amino)-2-oxoethyl)-3-(4-cyanopyridin-2-yl)-N-(5-fluoropyridin-3-yl)-2-oxo-1,3-oxazinane-4-carboxamide], the half-maximal inhibitory concentration (IC50) with U87MG cells (Homo sapiens, U-87 MG, 48 h) was under 100 nM.

The molecule `COc1cccc(N(C(=O)[C@@H]2CCC(=O)N2c2cc(C#N)ccn2)[C@H](C(=O)NC2CC(F)(F)C2)c2ccccc2Cl)c1` [Compound 129, (S)—N—((S)-1-(2C)-2-((3,3-difluorocyclobutyl)amino)-2-oxoethyl)-1-(4-cyanopyridin-2-yl)-N-(3-methoxyphenyl)-5-oxopyrrolidine-2-carboxamide] returned an IC50 in the assay with U87MG cells (Homo sapiens, U-87 MG, 48 h) of under 100 nM.

Regarding `O=C(NC1CC(F)(F)C1)[C@H](c1ccccc1Cl)N(C(=O)[C@@H]1COC(=O)N1c1ncccn1)c1cccc(F)c1` [Compound 9, (S)—N—((S)-1-(2-chloro-phenyl)-2-(3,3-difluorocyclo-butylamino)-2-oxoethyl)-N-(3-fluoro-phenyl)-2-oxo-3-(pyrimidin-2-yl)oxazolidine-4-carboxamide], the IC50 in the assay with U87MG cells (Homo sapiens, U-87 MG, 48 h) is under 100 nM.

For `CN1CC(=O)N(c2cc(C#N)ccn2)[C@H](C(=O)N(c2cc(F)cc(F)c2)[C@H](C(=O)NC2CC(F)(F)C2)c2ccccc2Cl)C1` [Compound 101, (S)—N—((S)-1-(2-chlorophenyl)-2-((3,3-difluorocyclobutyl)amino)-2-oxoethyl)-1-(4-cyanopyridin-2-yl)-N-(3,5-difluorophenyl)-4-methyl-6-oxopiperazine-2-carboxamide], the IC50 in the assay with U87MG cells (Homo sapiens, U-87 MG, 48 h) was under 100 nM.

`N#Cc1cc(C#N)cc(N(C(=O)[C@@H]2CCC(=O)N2c2cc(C#N)ccn2)C(C(=O)NC2CC(F)(F)C2)c2ccccc2Cl)c1` (stereo partly drawn) [Compound 191, (2S)—N-(1-(2-Chlorophenyl)-2-((3,3-difluorocyclobutyl)amino)-2-oxoethyl)-1-(4-cyanopyridin-2-yl)-N-(3,5-dicyanophenyl)-5-oxopyrrolidine-2-carboxamide] displayed a half-maximal inhibitory concentration (IC50) in the assay with U87MG cells (Homo sapiens, U-87 MG, 48 h) of under 100 nM.
